Results on 7 molecules are retold here after paper PMC3748936 (Chembiochem : a European journal of chemical biology, 2012).

In series [1] the target is T1, E. coli GMPS (Escherichia coli, UniProt P04079).
T1 sequence (P04079 1-525): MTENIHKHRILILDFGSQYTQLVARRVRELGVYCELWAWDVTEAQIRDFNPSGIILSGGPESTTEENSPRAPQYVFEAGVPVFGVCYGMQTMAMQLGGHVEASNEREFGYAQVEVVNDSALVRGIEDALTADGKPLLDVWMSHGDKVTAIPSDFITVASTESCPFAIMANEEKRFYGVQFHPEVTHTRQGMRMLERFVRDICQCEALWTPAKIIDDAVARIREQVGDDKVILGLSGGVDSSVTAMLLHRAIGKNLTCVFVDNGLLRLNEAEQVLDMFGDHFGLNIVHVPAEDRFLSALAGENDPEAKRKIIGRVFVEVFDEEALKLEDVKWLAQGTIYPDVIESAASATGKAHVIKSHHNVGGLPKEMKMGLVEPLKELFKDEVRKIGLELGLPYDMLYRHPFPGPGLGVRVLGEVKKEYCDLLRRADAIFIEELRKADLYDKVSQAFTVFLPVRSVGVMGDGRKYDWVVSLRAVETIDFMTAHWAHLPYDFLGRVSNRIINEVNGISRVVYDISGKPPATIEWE
The series can be described thus: HPLC-based assay of GMPS enzymatic reaction products. The class given is biochemical.

Series [2] deals with T1, E. coli GMPS. The series can be described thus: Continuous UV spectrophotometric assay of GMPS. The class given is biochemical. Conditions: UV-Vis analysis, triplicate, average +/- S.D.
Series [3] addresses T1, E. coli GMPS. The series can be described thus: GMPS inhibition of D-XMP amination, UV-Vis analysis. The class given is biochemical.
The target in series [4] is GMPS. The settings on record: previous report; cited from earlier work.
The subject of series [5] is GMPS isolated from rat Walker sarcoma cells. The settings on record: cited from earlier work.
For series [6], the target named is T1, E. coli GMPS. The settings on record: previous report; cited from earlier work.
Substrate in series [7]: O=c1[nH]c(=O)c2ncn([C@@H]3O[C@H](COP(=O)(O)O)[C@@H](O)[C@H]3O)c2[nH]1
As to the kind of experiment: Continuous UV spectrophotometric assay of GMPS. The class given is biochemical, E. coli. Conditions: other: UV-Vis analysis; triplicate, average +/- S.D.

`O=c1[nH]c(=O)c2ncn([C@H]3O[C@@H](COP(=O)(O)O)[C@H](O)[C@@H]3O)c2[nH]1` [L-XMP]: in series [1] (HPLC analysis), the “Km fold higher than the natural enantiomer D-XMP” value is recorded as ~ 10 fold, the “kcat fold difference in turnover number compared to D-XMP” value is on record as 15,000 fold and the “kcat/Km (specific activity) fold decrease from the natural enantiomer” value is listed as 140,000 fold. Moreover, the “conversion of substrate by GMPS (HPLC peak, MS confirmed)” value in series [1] (incubation with GMPS and NH4OAc) is listed as “converted to L-GMP by GMPS”. In addition, in series [2] (substrate turnover to GMP), the kcat was 3.1 (± 0.7) × 10^−6 s^−1. Besides, the Michaelis-Menten constant (Km) – broadly, the concentration of substrate that gives half-maximal velocity – in series [2] came to 330 ± 105 µM. Besides, the “fold more potent than decoyinine inhibition against E. coli GMPS” value in series [3] (from Ki values) is listed as ~7 fold.
Regarding `C=C1O[C@@](CO)(n2cnc3c(N)ncnc32)[C@H](O)[C@@H]1O` [Decoyinine, decoyinine], the inhibition constant Ki (commonly a dissociation constant, usually derived from enzyme kinetics or from competition with a known ligand) in series [3] is 54.1 ± 14.5 µM; in series [4] it was 26 µM.
Take `NC(=O)c1ncn([C@@H]2O[C@H](CO)[C@@H](O)[C@H]2O)c1O` [Mizoribine]: the inhibition constant (Ki) in series [3] was 1.8 ± 0.7 µM; in series [5], 10 µM.
Regarding `O=c1[nH]c(=O)c2ncn([C@@H]3O[C@H](COP(=O)(O)O)[C@@H](O)[C@H]3O)c2[nH]1` [D-XMP, xanthosine 5′-monophosphate], the “kcat (turnover number)” value in series [6] is recorded as 9.4×10^–2 s^–1.
Take `OC[C@H]1O[C@@H](n2cnc3c(O)nc(O)nc32)[C@H](O)[C@@H]1O` [D-Xanthosine, D-xanthosine]: the “GMPS inhibition (in words)” value in series [3] was “neither molecule inhibited GMPS”.
On the same count and under the same terms, for `O=c1[nH]c(=O)c2ncn(C3OC(CO)C(O)C3O)c2[nH]1` [L-Xanthosine, L-xanthosine] the value was “neither molecule inhibited GMPS”.

B1: E. coli GMPS (Escherichia coli K-12) (protein)
chain: MTENIHKHRILILDFGSQYTQLVARRVRELGVYCELWAWDVTEAQIRDFNPSGIILSGGPESTTEENSPRAPQYVFEAGVPVFGVCYGMQTMAMQLGGHVEASNEREFGYAQVEVVNDSALVRGIEDALTADGKPLLDVWMSHGDKVTAIPSDFITVASTESCPFAIMANEEKRFYGVQFHPEVTHTRQGMRMLERFVRDICQCEALWTPAKIIDDAVARIREQVGDDKVILGLSGGVDSSVTAMLLHRAIGKNLTCVFVDNGLLRLNEAEQVLDMFGDHFGLNIVHVPAEDRFLSALAGENDPEAKRKIIGRVFVEVFDEEALKLEDVKWLAQGTIYPDVIESAASATGKAHVIKSHHNVGGLPKEMKMGLVEPLKELFKDEVRKIGLELGLPYDMLYRHPFPGPGLGVRVLGEVKKEYCDLLRRADAIFIEELRKADLYDKVSQAFTVFLPVRSVGVMGDGRKYDWVVSLRAVETIDFMTAHWAHLPYDFLGRVSNRIINEVNGISRVVYDISGKPPATIEWE
With B1, in series [7], the Michaelis constant (Km) is 24.9 ± 6.6 µM, the kcat turned out to be 0.043 ± 0.007 s⁻¹ and the kcat/Km (usually the second-order rate constant that governs catalysis at low substrate concentration) came to 1700 M⁻¹ s⁻¹.
